From patent US20060217340A1, “Methods and products for treating hypertension by modulation of TRPC3 channel activity” (University of Vermont and State Agricultural College, priority 2005, published 2006)

Legend:
[1] = tested on: pressurized rat cerebral arteries; test: Arterial wall Ca2+ concentration measurement (FURA-2) in isolated arteries; format: cell-based; conditions: for effect on arterial wall Ca2+ or vessel diameter: absence of extracellular Ca2+
Protocol: Diameter and membrane potential recordings. […] In experiments using Ca^2+-free PSS, CaCl2 was omitted and 3 mM EGTA and 30 μM diltiazem added. In experiments with diacylglycerol induction, 300 μM of the diacylglycerol analogue OAG (1-oleyol-2-acetyl-sn-glycerol) was added. […] To verify endothelial cell removal the arteries were pressurized to 60 mmHg and allowed to develop myogenic tone prior to exposing the vessels to 1 μM UTP. […] Arterial diameter or membrane potential (Vm) of sense and anti-sense treated arteries was measured in the absence (control) or presence of UTP (concentration range: 0.1 to 10 μM). Membrane potential was measured by inserting a sharp glass electrode (≈100 MΩ resistance) containing 0.5M KCl into the vessel wall. […] Measurements were made using an electrometer (World Precision Instruments) and the data were recorded via computer using Axotape and Dataq software. Arterial diameter was measured using a video dimension analyzer (IonOptix Corporation; Milton, Mass.).
Ca^2+ concentration measurement in isolated arteries. Mounted arteries were equilibrated in 1.6 m M PSS for 40 minutes at 37° C. (pH 7.4) prior to loading the vascular smooth muscle cells with the Ca^2+-sensitive fluorescent dye, FURA-2. To load the cells, the 1.6 mM PSS was gradually replaced over 5 minutes with HEPES solution (25° C., pH 7.4). A total of 40 μL of a premixed 100 μM FURA-2-acetoxymethyl ester solution (100 μg FURA-2, 200 μL Pluronic acid, 800 μL DMSO) was added directly to the HEPES to give a final concentration of 2 μM FURA-2 AM. Loading continued in the dark at 25° C. (pH 7.4) for 40 minutes. At the end of the loading period, the HEPES was replaced with 1.6 mM PSS (35° C., pH 7.4) and 30 minutes was allowed for complete de-esterification of the FURA-2 AM before [Ca^2+]c measurements were made. FURA-2 fluorescence was measured using a photomultiplier system (IonOptix Corporation; Milton, Mass., USA) in which background-corrected ratios of the 510-nm emission from arteries alternatively excited at 340 and 380 nm were obtained at a sampling rate of 5 Hz.

[2] = tested on: pressurized rat cerebral arteries; test: Arterial diameter recordings (constriction) in pressurized cerebral arteries; format: cell-based
Description: (§1) Oligodeoxynucleotide Sequences and Reverse Permeabilization. TRPC6 sense and antisense oligodeoxynucleotides (ODN's) were designed as previously described (Welsh et al 2002 Circ Res 90, 248-250) and were as follows: sense, 5′-[…]-3′ (SEQ ID: 3) and 5′-GCACACGCAGCCTCTTCAC-3′ (SEQ ID: 4) antisense, 5′-[…]-3′ (SEQ ID: 5) and 5′-[…]-3′ (SEQ ID: 6). TRPC3 sense and antisense ODN's were designed based on the rat TRPC3 gene (Ohki et al 2000 J Biol Chem 275: 39055-39060) and are as follows: sense, 5′-[…]-3′ (SEQ ID: 7) and 5′-[…]-3′ (SEQ ID: 8); anti-sense, 5′-[…]-3′ (SEQ ID: 9) and 5′-[…]-3′ (SEQ ID: 10). The last five bases on the 5′ and 3′ end were phosphorothioated in order to limit ODN degradation. For some experiments fluoroscein-isothiocyanate was conjugated to the 5′ end to allow for histological assessment of cellular uptake of the ODNs. All ODNs were synthesized and HPLC purified commercially by Qiagen (Alameda, Calif., USA). Sense and antisense ODN's (2 μM) were introduced into the arterial SMs using a reversible permeabilization procedure (Lesh et al 1995 Circ Res 77,220-230)). The arterial segments were then organ cultured for 3 days in D-MEM/F-12 culture media with L-glutamine (2 mM), penicillin (50 units/ml) and streptomycin (50 μg/ml) prior to use.
Diameter and membrane potential recordings. Endothelial cell denuded artery segments were mounted on glass pipettes in an arteriograph chamber (Living Systems, Burlington, Vt., USA), pressurized to 20 mmHg (with no flow), and superfused with warm (37° C.), gassed (95% 02/5% CO2) physiological saline solution (PSS) containing (in mM): 119 NaCl, 4.7 KCl, 24 NaHCO3, 0.2 KH2PO4, […], 1.2 MgSO4, 1.6 CaCl2, and 10.6 glucose, pH 7.4. In experiments using Ca^2+-free PSS, CaCl2 was omitted and 3 mM EGTA and 30 μM diltiazem added. In experiments with diacylglycerol induction, 300 μM of the diacylglycerol analogue OAG (1-oleyol-2-acetyl-sn-glycerol) was added. The endothelium was removed as previously described (Sun et al 1993 Endothelium 1, 115-122). To verify endothelial cell removal the arteries were pressurized to 60 mmHg and allowed to develop myogenic tone prior to exposing the vessels to 1 μM UTP. Absence of a dilation or biphasic constrictor response to 1 μM UTP indicated successful endothelial cell removal (Marelli 2001 Am J Physiol Heart Cir Physiol 281, H1759-H1766; Miyagi et al 1996 Br J Pharmacol 118, 847-856). […] Membrane potential was measured by inserting a sharp glass electrode (≈100 MΩ resistance) containing 0.5M KCl into the vessel wall. The criteria for successful vascular smooth muscle cell impalement were: (1) a sharp negative Vm deflection on entry; (2) a stable potential for at least 1 minute after entry; and (3) a sharp positive Vm deflection upon removal. Measurements were made using an electrometer (World Precision Instruments) and the data were recorded via computer using Axotape and Dataq software. Arterial diameter was measured using a video dimension analyzer (IonOptix Corporation; Milton, Mass.).
Statistical analysis. Data are expressed as means±SEM, and n indicates the number of animals. Changes in arterial diameter were measured as a percent constriction calculated as follows: [formula]

[3] = tested on: cerebral artery SMCs; test: Membrane potential recordings in pressurized cerebral arteries; format: cell-based, rat
Description: as §1
Diameter and membrane potential recordings. Endothelial cell denuded artery segments were mounted on glass pipettes in an arteriograph chamber (Living Systems, Burlington, Vt., USA), pressurized to 20 mmHg (with no flow), and superfused with warm (37° C.), gassed (95% 02/5% CO2) physiological saline solution (PSS) containing (in mM): 119 NaCl, 4.7 KCl, 24 NaHCO3, 0.2 KH2PO4, […], 1.2 MgSO4, 1.6 CaCl2, and 10.6 glucose, pH 7.4. In experiments using Ca^2+-free PSS, CaCl2 was omitted and 3 mM EGTA and 30 μM diltiazem added. In experiments with diacylglycerol induction, 300 μM of the diacylglycerol analogue OAG (1-oleyol-2-acetyl-sn-glycerol) was added. The endothelium was removed as previously described (Sun et al 1993 Endothelium 1, 115-122). To verify endothelial cell removal the arteries were pressurized to 60 mmHg and allowed to develop myogenic tone prior to exposing the vessels to 1 μM UTP. Absence of a dilation or biphasic constrictor response to 1 μM UTP indicated successful endothelial cell removal (Marelli 2001 Am J Physiol Heart Cir Physiol 281, H1759-H1766; Miyagi et al 1996 Br J Pharmacol 118, 847-856). Arterial diameter or membrane potential (Vm) of sense and anti-sense treated arteries was measured in the absence (control) or presence of UTP (concentration range: 0.1 to 10 μM). Membrane potential was measured by inserting a sharp glass electrode (≈100 MΩ resistance) containing 0.5M KCl into the vessel wall. The criteria for successful vascular smooth muscle cell impalement were: (1) a sharp negative Vm deflection on entry; (2) a stable potential for at least 1 minute after entry; and (3) a sharp positive Vm deflection upon removal. Measurements were made using an electrometer (World Precision Instruments) and the data were recorded via computer using Axotape and Dataq software. Arterial diameter was measured using a video dimension analyzer (IonOptix Corporation; Milton, Mass.).

[4] = OAG, Sprague Dawley, WKY and SHR rats
[5] = 30 μM UTP in PSS, first exposure
[6] = in the presence of UTP, steady state
[7] = Gd3+ given prior to re-introduction of extracellular Ca2+
[8] = 2 μM thapsigargin, presence of UTP, n=3
[9] = 1 μM nimodipine, extracellular Ca2+ re-introduced in the presence of UTP

CCCCCCCC/C=C\CCCCCCCC(=O)OC[C@H](CO)OC(C)=O [OAG, 1-oleoyl-2-acetyl-sn-glycerol]
increase in calcium concentration, arteries from SHR compared with normotensive rats [1, 4]: significantly larger increases | constriction of arteries from SHR compared with normotensive rats [2, 4]: significantly larger increases

O=c1ccn([C@@H]2O[C@H](COP(=O)(O)OP(=O)(O)OP(=O)(O)O)[C@@H](O)[C@H]2O)c(=O)[nH]1 [UTP, uridine triphosphate]
initial peak increase in arterial wall Ca2+ ([1]; 30 μM UTP in PSS containing Ca2+, n=8): 291 ± 45 nM | steady state arterial wall [Ca2+] [1, 5]: 145 ± 10 nM | effect on arterial wall Ca2+ or vessel diameter [1]: neither UTP (FIG. 11 and FIG. 12) nor caffeine (FIG. 11A) affected | arterial wall [Ca2+] in Ca2+ free PSS ([1]; continued presence of UTP): decline below the resting level | arterial wall Ca2+ after returning extracellular Ca2+ [1, 6]: 139 ± 15 nM | depolarization of arterial SMCs ([3]; micromolar concentrations of UTP): approximately 20 mV | sustained decrease in lumen diameter [2, 5]: 49±4% | vessel response in Ca2+ free PSS ([2]; continued presence of UTP): completely relax | decrease in lumen diameter (vasoconstriction) after returning extracellular Ca2+ [2, 6]: 48±5%

[Gd+3] [Gd^3+]
effect on increase in arterial wall Ca2+ after Ca2+ return in the presence of UTP ([1]; 30 μM Gd3+, nimodipine present): reverses | arterial wall Ca2+ response to UTP [1, 7]: did not increase | effect on vasoconstriction after Ca2+ return in the presence of UTP ([2]; 30 μM Gd3+, nimodipine present): reverses | vasoconstriction in response to UTP [2, 7]: nor did vasoconstriction occur

Cn1c(=O)c2c(ncn2C)n(C)c1=O [caffeine]
peak [Ca2+]c ([1]; 10 mM caffeine, PSS containing Ca2+): 227 ± 42 nM | effect on arterial wall Ca2+ or vessel diameter [1]: neither UTP (FIG. 11 and FIG. 12) nor caffeine (FIG. 11A) affected | % constriction ([2]; 10 mM caffeine, PSS containing Ca2+, transient): 31±6%

C/C=C(/C)C(=O)O[C@H]1C(C)=C2[C@H]([C@@H]1OC(=O)CCCCCCC)[C@@](C)(OC(C)=O)C[C@H](OC(=O)CCC)[C@@]1(O)[C@H]2OC(=O)[C@@]1(C)O [thapsigargin]
arterial wall Ca2+ when extracellular Ca2+ reintroduced [1, 8]: 116 ± 29 nM | diameter decrease when extracellular Ca2+ reintroduced [2, 8]: 39±6%

COCCOC(=O)C1=C(C)NC(C)=C(C(=O)OC(C)C)C1c1cccc([N+](=O)[O-])c1 (stereo not shown) [nimodipine]
UTP-induced increase in arterial wall Ca2+ [1, 9]: 94 ± 10 nM | share of extracellular Ca2+ influx entering through the L-type Ca2+ channel ([1]; re-admission of Ca2+ in the presence of UTP): about 30% | UTP-induced vasoconstriction [2, 9]: 29±3%

5′-GGAGTTCAGACTGGCTAGGG-3′ (SEQ ID: 5) and 5′-GCACACGCAGCCTCCTTCAC-3′ (SEQ ID: 6) (DNA, backbone not given here; further chemistry not fully specified) [TRPC6 antisense, TRPC6 antisense oligodeoxynucleotides designed as previously described (Welsh et al 2002)]
UTP-induced depolarization, TRPC6 antisense- versus sense-treated group ([3]; exposure to UTP): no difference | magnitude of constriction ([2]; increasing concentrations of UTP): did not affect
